Here are results for three molecules from patent publication EP1458697B1, “BIPHENYLMETHYL-THIAZOLIDINEDIONES AND ANALOGUES AND THEIR USE AS PPAR-GAMMA ACTIVATORS” (Galderma Research & Development, S.N.C., priority 2001, dated 2003).

Each structure is given as a SMILES string.

Assay [1] has as its target T1, récepteur chimère Gal-PPARγ (LBD) (Homo sapiens, UniProt P37231).
T1 construct: le récepteur chimère Gal-PPARγ (LBD); Gal (fusion partner); expressed in transfected cells; host or cells: HeLa cells, stably transfected
T1 sequence (P37231 238-503 limits assumed): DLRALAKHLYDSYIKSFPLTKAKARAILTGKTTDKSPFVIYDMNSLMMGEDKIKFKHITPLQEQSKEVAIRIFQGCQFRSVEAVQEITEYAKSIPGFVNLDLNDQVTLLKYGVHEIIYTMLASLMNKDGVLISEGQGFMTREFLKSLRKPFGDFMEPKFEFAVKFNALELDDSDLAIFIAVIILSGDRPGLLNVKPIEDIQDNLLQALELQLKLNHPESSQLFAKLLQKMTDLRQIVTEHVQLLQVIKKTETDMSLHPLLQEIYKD
Nature of the assay: Transactivation test, Hela cells stably transfected with chimeric receptor Gal-PPARγ (LBD), luciferase readout. In kind it is cell-based. The following applies: M-HeLa, 24 h, compound at 1 microM, percent of activation relative to reference agonist at 1 µM, read-out: % d'activation (à 1 microM) PPARγ. As to the method: L'activité agoniste vis à vis des récepteurs PPARγ des composés selon l'invention peut être évaluée par des tests de transactivation.
(§1) La capacité des molécules à activer et/ou inhiber les récepteurs PPARγ est évaluée à partir de cellules Hela transfectées de manière stable avec le récepteur chimère Gal-PPARγ (LBD).
(§2) Des plaques 96 puits sont ensemencées à raison de 10 000 cellules /100 µl / puit dans du milieu DMEM 10% SDL puis placées 24 heures à 37°C, 7% CO2.
(§3) Pour déterminer l'activité agoniste PPARγ, les cellules sont ensuite traitées par ajout de 5 µl puit des molécules à tester à la concentration finale de 1 µM. Des cellules sont également traitées en parallèle avec un agoniste de référence, l'acide (-)-3-{4-[2-(Benzooxazol-2-yl-methyl-amino)-ethoxy]-phenyl}-2-ethoxy-propionique, 1 µM.
(§4) Après une nouvelle incubation de 24 heures à 37°C, 7% CO2, un dosage de la luciférase est effectué à l'aide du kit « Steady-Glo Luciferase Assay System » de Promega. Le comptage de la luminescence se fait sur un lecteur de microplaque Microbéta Trilux (Wallac).
(§5) L'activité agoniste du produit testé sera exprimée en pourcentage d'activation par rapport au témoin agoniste l'agoniste de référence à 1 µM.
(§6) L'AC50, exprimée en nM, est déterminée comme la concentration permettant d'obtenir 50% d'activation du signal basal par rapport à l'agoniste de référence.

Assay [2] deals with T2, récepteur chimère Gal-PPARα (Homo sapiens, UniProt Q07869).
T2 sequence (Q07869 167-468): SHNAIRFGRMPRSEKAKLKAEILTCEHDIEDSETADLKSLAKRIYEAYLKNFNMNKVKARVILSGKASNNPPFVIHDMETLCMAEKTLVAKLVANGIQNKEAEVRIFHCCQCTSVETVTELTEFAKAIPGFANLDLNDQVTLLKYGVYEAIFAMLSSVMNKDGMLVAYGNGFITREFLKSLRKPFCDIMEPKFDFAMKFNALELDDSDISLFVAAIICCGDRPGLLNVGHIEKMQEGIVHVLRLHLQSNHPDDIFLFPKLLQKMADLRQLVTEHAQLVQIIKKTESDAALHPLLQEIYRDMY
The assay is described as follows: Transactivation test, same protocol with chimeric receptor Gal-PPARα. In kind it is cell-based. As to conditions: 24 h; compound at 1 microM; percent of activation relative to reference agonist (Wy 14643 = 100%); Hela cells; read-out: % d'activation (à 1 microM) PPARα.
From the text: De préférence, l'activateur des récepteurs de type PPARγ est spécifique, c'est à dire qu'il présente un rapport du pourcentage d'activation des récepteurs PPARγ, au pourcentage d'activation des récepteurs PPARα (calculé par rapport à un composé de référence, le Wy 14643, activant les PPARα de 100%) supérieur ou égal à 3. De préférence, ce rapport est supérieur ou égal à 5 et plus avantageusement supérieur ou égal à 10.
as §1, §2, §3, §4, §5
En appliquant ce même protocole avec le récepteur chimère Gal-PPARα, on peut mesurer l'activité agoniste des composés vis à vis des récepteurs PPAR alpha et ainsi la comparer avec celui du récepteur PPARγ.
as §6

Regarding `CN(C(=O)Nc1ccc2ccccc2c1)c1cccc(-c2ccc(CC3SC(=O)NC3=O)cc2)c1` (stereo not drawn) [Composé de l'exemple 21, 1-[4'-(2,4-Dioxo-thiazolidin-5-ylmethyl)-biphenyl-3-yl]-1-methyl-3-naphthalen-2-yl-urée], the activation at 1 µM was 104% in assay [1] and -4.2% in assay [2].
The corresponding values for `CN(C)c1ccc(NC(=O)N(C)c2cccc(-c3ccc(CC4SC(=O)NC4=O)cc3)c2)cc1` (stereo not drawn) [Composé de l'exemple 22, 3-(4-Dimethylamino-phenyl)-1-[4'-(2,4-dioxo-thiazolidin-5-ylmethyl)-biphenyl-3-yl]-1-methyl-urée] are 108% and -3.9%.
For the molecule `CCO[C@@H](Cc1ccc(-c2cccc(CN(C)C(=O)c3ccc4cc(OCOCCOC)ccc4c3)c2)cc1)C(=O)O` [Composé de l'exemple 23, Acide (S)-2-Ethoxy-3-{3'-[({1-[6-(2-methoxy-ethoxymethoxy)-naphthalen-2-yl]-methanoyl}-methyl-amino)-methyl]-biphenyl-4-yl}-propionique], the activation at 1 µM in assay [1] amounted to 90%; in assay [2], 11.9%.
